These results are taken from BindingDB's records for doi:10.1016/j.bioorg.2016.11.011 (Tehran University of Medical Sciences, 2017).

“And” between values parts separate entries of the source, which are not always exact repeats. Identical values can stand only once.

The term IC50 denotes the concentration needed to halve the response being measured.

The target of test [1] is Carboxylic ester hydrolase (Equus caballus, UniProt Q9N1N9). The experiment in a line: AChE and BChE Inhibition Assay. The conditions noted are these: pH 8; 25 °C. As for the experimental part: (§1) In vitro anti-AChE activity was performed based on the modified Ellman's method [Ellman et al., Biochem. Pharmacol., […]]. […] Each well contained 50 μL potassium phosphate buffer (KH2PO4/K2HPO4, 0.1 M, pH 8), 25 μL prepared sample as described above, 25 μL enzyme with final concentration of 0.22 U/mL in buffer. They were preincubated for 15 min at room temperature, and then […] DTNB (3 mM in buffer) was added. […] The IC50 values were determined graphically from inhibition curves (log inhibitor concentration vs. percent of inhibition). A control experiment was performed under the same conditions without inhibitor and the blank contained buffer, water, DTNB, and substrate. The described method was also used for BChE inhibition assay.

Test [2] deals with Acetylcholinesterase (Electrophorus electricus, UniProt O42275). The test is described as follows: AChE and BChE Inhibition Assay. The note with it: pH 8; 25 °C. As for the experimental part:
as §1

Acetylcholinesterase, sequence (O42275 whole entry): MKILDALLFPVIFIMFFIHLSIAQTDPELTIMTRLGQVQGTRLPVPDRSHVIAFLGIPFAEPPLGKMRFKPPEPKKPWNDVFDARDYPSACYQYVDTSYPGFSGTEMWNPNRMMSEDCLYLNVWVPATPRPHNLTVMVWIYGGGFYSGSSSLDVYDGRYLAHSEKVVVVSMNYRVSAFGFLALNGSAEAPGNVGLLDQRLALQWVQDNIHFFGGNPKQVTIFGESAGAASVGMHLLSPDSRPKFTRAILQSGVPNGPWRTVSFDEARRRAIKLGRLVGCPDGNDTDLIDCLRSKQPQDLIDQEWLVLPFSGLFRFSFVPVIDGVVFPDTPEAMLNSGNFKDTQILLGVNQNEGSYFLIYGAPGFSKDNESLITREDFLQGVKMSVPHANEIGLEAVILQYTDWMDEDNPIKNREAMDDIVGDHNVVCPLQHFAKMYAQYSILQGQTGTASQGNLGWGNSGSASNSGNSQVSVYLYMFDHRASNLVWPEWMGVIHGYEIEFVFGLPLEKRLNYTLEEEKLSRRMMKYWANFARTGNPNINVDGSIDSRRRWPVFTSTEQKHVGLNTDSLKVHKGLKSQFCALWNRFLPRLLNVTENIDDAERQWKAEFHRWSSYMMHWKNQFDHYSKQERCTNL
Carboxylic ester hydrolase, sequence (Q9N1N9 whole entry): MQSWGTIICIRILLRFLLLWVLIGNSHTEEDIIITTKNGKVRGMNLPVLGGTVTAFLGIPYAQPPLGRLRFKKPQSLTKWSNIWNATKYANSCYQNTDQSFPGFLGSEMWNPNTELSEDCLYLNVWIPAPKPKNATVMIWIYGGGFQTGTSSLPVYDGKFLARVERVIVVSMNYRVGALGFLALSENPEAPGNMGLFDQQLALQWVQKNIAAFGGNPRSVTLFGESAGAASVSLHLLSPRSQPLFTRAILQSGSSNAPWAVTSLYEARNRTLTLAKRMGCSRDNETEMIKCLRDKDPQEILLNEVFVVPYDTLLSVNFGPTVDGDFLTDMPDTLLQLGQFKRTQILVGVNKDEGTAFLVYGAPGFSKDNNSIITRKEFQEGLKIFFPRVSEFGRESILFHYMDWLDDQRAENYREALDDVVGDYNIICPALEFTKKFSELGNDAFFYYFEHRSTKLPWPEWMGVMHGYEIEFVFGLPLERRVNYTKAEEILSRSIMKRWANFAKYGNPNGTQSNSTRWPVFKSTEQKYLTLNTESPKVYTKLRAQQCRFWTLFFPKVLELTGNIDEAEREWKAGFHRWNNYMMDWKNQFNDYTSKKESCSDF

As to `COc1cccc2cc(C(=O)NCc3cn(Cc4ccccc4C)nn3)c(=O)oc12` [8-Methoxy-N-((1-(2-methylbenzyl)-1H-1,2,3-triazol-4-yl)methyl)-2-oxo-2H-chromene-3-carboxamide (6l)], the results for the IC50 in test [1] and in test [2] were above 100 µM and 24.1 µM, respectively.

For `COc1cccc2cc(C(=O)NCc3cn(Cc4cccc(Cl)c4Cl)nn3)c(=O)oc12` [N-((1-(2,3-dichlorobenzyl)-1H-1,2,3-triazol-4-yl)methyl)-8-methoxy-2-oxo-2H-chromene-3-carboxamide (6n)], the IC50 was above 100 µM in test [1] and 33.8 µM in test [2]. Take `O=C(NCc1cnnn1Cc1cccc(Cl)c1Cl)c1cc2ccccc2oc1=O` [N-((1-(2,3-dichlorobenzyl)-1H-1,2,3-triazol-5-yl)methyl)-2-oxo-2H-chromene-3-carboxamide (6h)]: the IC50 amounted to 67 µM in test [1] and 20.2 µM in test [2]. Take `O=C(NCc1cnnn1Cc1ccccc1Br)c1cc2ccccc2oc1=O` [N-((1-(2-bromobenzyl)-1H-1,2,3-triazol-5-yl)methyl)-2-oxo-2H-chromene-3-carboxamide (6j)]: in test [1], the 50% inhibitory concentration (IC50) was 31 µM and > 100 µM.

Take `COc1cccc2cc(C(=O)NCc3cn(Cc4ccccc4Cl)nn3)c(=O)oc12` [N-((1-(2-chlorobenzyl)-1H-1,2,3-triazol-4-yl)methyl)-8-methoxy-2-oxo-2H-chromene-3-carboxamide (6m)]: the IC50 in test [1] is 96.1 µM; in test [2], 15.4 µM. As for `O=C(NCc1cnnn1Cc1ccccc1Cl)c1cc2ccccc2oc1=O` [N-((1-(2-chlorobenzyl)-1H-1,2,3-triazol-5-yl)methyl)-2-oxo-2H-chromene-3-carboxamide (6f)], the IC50 in test [1] is above 100 µM; in test [2], 34 µM. Take `Cc1ccccc1Cn1nncc1CNC(=O)c1cc2ccccc2oc1=O` [N-((1-(2-methylbenzyl)-1H-1,2,3-triazol-5-yl)methyl)-2-oxo-2H-chromene-3-carboxamide (6b)]: the 50% inhibitory concentration (IC50) in test [1] is above 100 µM; in test [2], 78.9 µM. Consider `COc1cccc2cc(C(=O)NCc3cn(Cc4ccc(Cl)c(Cl)c4)nn3)c(=O)oc12` [N-((1-(3,4-dichlorobenzyl)-1H-1,2,3-triazol-4-yl)methyl)-8-methoxy-2-oxo-2H-chromene-3-carboxamide (6o)], for which the IC50 is above 100 µM in test [1] and 25.5 µM in test [2]. Take `O=C(NCc1cnnn1Cc1ccc(Cl)c(Cl)c1)c1cc2ccccc2oc1=O` [N-((1-(3,4-dichlorobenzyl)-1H-1,2,3-triazol-5-yl)methyl)-2-oxo-2H-chromene-3-carboxamide (6i)]: the IC50 in test [1] was above 100 µM; in test [2], 16.7 µM. With `O=C(NCc1cnnn1Cc1cccc(Cl)c1)c1cc2ccccc2oc1=O` [N-((1-(3-chlorobenzyl)-1H-1,2,3-triazol-5-yl)methyl)-2-oxo-2H-chromene-3-carboxamide (6g)], the figures for the IC50 in test [1] and in test [2] were above 0.1 µM and 92.8 µM, respectively. `O=C(NCc1cnnn1Cc1cccc(F)c1)c1cc2ccccc2oc1=O` [N-((1-(3-fluorobenzyl)-1H-1,2,3-triazol-5-yl)methyl)-2-oxo-2H-chromene-3-carboxamide (6d)]: the IC50 in test [1] was above 100 µM; in test [2] it was 48.1 µM. With `O=C(NCc1cn(Cc2ccc(Br)cc2)nn1)c1cc2ccccc2oc1=O` [N-((1-(4-bromobenzyl)-1H-1,2,3-triazol-4-yl)methyl)-2-oxo-2H-chromene-3-carboxamide (6k)], the IC50 in test [1] was > 100 µM and 75.3 µM. For `O=C(NCc1cnnn1Cc1ccc(F)cc1)c1cc2ccccc2oc1=O` [N-((1-(4-fluorobenzyl)-1H-1,2,3-triazol-5-yl)methyl)-2-oxo-2H-chromene-3-carboxamide (6e)], the IC50 in test [1] and in test [2] was above 100 µM in each case. Regarding `Cc1ccc(Cn2nncc2CNC(=O)c2cc3ccccc3oc2=O)cc1` [N-((1-(4-methylbenzyl)-1H-1,2,3-triazol-5-yl)methyl)-2-oxo-2H-chromene-3-carboxamide (6c)], the IC50 in test [1] and in test [2] was above 100 µM in each case. In the case of `O=C(NCc1cnnn1Cc1ccccc1)c1cc2ccccc2oc1=O` [N-((1-benzyl-1H-1,2,3-triazol-5-yl)methyl)-2-oxo-2Hchromene-3-carboxamide (6a)], the IC50 in test [1] and in test [2] was above 100 µM each time.
